Experimental data reported in patent US11274090B2, “P300/CBP HAT inhibitors” (Constellation Pharmaceuticals, Inc., priority 2018, dated 2022).
pIC50: −log10 of the molar value.

Tests used:
full length p300 = full length p300 (Homo sapiens (Human), UniProt Q09472); assay: full length p300 SPA assay; type: biochemical; conditions: average of at least 2 replicate titrations, read-out: FL P300 IC50
Procedure: Reactions were initiated with 12.5 μL 2 μM biotinylated H3(1-21) peptide (New England Peptide) and run for 1 hr at RT, then quenched with 20 μL stop solution (200 mM Tris pH 8.0, 200 mM EDTA, 2M NaCl, 160 μM anacardic acid). 35 μL of the reaction volume was transferred to a 384-well streptavidin FlashPlate (PerkinElmer) using a Bravo liquid handler (Velocity 11) and incubated for 1.5 hr at RT. Plates were aspirated, washed with 95 μL wash buffer (15 mM Tris pH 8.5, 0.069 μM Brij-35), aspirated, sealed, and scintillation counts read on a Topcount (PerkinElmer). Data were analyzed in Genedata to determine inhibitor IC50 values.
The full length p300 SPA assay was run following the same protocol as p300 HAT SPA assay, but used 6 nM purified full length p300 (purchased from Active Motif) in place of the purified p300-HAT domain.

[1] = target: p300 HAT domain (residues 1287-1666) (Homo sapiens (Human), UniProt Q09472); assay: p300 HAT SPA assay (scintillation proximity assay, acetylation of biotinylated H3(1-21) peptide); type: biochemical; conditions: average of at least 2 replicate titrations
Chain of p300 HAT domain (residues 1287-1666) (Q09472 1287-1666): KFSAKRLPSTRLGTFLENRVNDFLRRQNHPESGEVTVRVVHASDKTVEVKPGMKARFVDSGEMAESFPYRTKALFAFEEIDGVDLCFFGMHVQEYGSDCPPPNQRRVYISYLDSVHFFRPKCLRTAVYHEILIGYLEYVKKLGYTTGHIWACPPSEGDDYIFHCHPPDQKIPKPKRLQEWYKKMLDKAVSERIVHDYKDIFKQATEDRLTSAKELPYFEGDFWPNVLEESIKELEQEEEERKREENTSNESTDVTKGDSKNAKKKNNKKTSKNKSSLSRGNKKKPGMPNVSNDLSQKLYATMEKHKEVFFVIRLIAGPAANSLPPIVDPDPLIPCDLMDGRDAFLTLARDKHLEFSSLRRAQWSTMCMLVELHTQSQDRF
How it was run: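 Purified p300 HAT domain reaction transferred to streptavidin plates to capture biotinylated H3(1-21) peptide, incubated 1.5 hr at RT, and read by scintillation proximity. IC50 values derived from concentration-response data.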

Chain of full length p300 (Q09472 whole entry): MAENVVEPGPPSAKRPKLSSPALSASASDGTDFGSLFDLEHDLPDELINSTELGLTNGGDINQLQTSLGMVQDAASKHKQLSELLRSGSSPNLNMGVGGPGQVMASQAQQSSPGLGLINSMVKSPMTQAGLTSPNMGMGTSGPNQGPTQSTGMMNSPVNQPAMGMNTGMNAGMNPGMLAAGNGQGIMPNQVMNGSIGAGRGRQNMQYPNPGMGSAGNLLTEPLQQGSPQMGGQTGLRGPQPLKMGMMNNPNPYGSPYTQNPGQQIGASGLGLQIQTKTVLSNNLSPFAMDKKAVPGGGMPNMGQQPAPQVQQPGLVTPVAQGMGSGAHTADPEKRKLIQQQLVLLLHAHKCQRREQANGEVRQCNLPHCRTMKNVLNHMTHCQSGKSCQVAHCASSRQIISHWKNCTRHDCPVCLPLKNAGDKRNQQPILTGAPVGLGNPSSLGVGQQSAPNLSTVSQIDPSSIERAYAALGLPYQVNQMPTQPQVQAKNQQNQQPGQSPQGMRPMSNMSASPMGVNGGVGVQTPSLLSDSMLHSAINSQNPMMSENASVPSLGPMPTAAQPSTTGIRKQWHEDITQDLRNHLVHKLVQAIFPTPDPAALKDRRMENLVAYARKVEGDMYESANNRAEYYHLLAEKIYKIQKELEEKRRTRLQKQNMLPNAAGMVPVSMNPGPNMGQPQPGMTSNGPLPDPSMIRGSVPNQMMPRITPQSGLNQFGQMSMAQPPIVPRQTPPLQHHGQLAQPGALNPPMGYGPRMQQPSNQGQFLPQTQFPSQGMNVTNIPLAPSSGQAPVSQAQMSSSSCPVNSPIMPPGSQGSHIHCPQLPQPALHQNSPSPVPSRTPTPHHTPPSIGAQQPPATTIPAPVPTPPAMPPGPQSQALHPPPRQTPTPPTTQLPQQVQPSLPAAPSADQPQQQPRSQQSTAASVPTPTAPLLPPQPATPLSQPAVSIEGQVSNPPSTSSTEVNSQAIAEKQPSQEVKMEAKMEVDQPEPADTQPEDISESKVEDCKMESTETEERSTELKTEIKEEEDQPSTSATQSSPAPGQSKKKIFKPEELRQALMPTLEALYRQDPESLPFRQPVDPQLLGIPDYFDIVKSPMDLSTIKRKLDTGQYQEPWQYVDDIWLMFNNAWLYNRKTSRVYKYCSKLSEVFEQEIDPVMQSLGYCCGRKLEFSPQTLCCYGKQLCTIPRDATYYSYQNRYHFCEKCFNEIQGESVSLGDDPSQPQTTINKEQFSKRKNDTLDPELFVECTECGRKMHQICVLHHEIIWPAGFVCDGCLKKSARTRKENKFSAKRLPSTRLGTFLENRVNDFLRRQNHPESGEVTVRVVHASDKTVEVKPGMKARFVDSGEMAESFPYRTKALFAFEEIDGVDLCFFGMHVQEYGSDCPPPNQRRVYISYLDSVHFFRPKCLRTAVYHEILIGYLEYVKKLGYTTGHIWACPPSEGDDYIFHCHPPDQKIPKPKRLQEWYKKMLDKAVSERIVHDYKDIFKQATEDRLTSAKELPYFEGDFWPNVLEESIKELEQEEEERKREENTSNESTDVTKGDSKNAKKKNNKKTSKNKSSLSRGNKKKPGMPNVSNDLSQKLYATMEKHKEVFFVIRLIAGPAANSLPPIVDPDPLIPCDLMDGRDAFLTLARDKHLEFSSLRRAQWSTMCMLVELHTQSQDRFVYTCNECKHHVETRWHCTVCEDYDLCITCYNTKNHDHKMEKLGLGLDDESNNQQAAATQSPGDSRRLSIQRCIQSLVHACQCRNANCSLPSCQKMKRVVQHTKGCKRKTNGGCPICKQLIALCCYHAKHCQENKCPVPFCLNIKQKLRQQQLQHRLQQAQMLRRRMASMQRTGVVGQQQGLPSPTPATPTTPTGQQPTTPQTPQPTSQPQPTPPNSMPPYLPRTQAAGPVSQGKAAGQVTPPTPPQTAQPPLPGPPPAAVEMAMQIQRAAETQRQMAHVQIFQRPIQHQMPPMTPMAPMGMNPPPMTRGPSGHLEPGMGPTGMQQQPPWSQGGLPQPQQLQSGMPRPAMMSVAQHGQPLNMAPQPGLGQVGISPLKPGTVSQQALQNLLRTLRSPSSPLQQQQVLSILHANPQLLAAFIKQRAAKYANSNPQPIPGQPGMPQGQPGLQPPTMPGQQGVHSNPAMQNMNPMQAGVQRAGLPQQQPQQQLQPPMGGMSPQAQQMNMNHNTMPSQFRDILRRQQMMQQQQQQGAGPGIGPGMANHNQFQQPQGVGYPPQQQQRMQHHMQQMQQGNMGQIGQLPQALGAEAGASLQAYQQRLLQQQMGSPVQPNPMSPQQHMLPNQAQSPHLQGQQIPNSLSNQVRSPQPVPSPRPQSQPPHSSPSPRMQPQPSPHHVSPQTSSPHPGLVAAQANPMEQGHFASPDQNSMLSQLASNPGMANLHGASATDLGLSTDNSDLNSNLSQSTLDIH

Row | pIC50 (full length p300) | pIC50 [1] | Compound
1 | 7.87 | 6.42 | N#Cc1ccc(CCNC(C(=O)Nc2ccc(-c3cn[nH]c3)cn2)c2ccccc2)cc1 (single isomer, unassigned) [7 Isomer 2]
2 | 6.56 | < 5.30 | Cn1cnc(-c2ccc(NC(=O)C(NCCc3ccc(C#N)cc3)c3ccccc3)nc2)c1 (single isomer, unassigned) [13 Isomer 1]
3 | 6.75 | < 5.30 | Cn1ccc(-c2ccc(NC(=O)C(NCCc3ccc(C#N)cc3)c3ccccc3)nc2)n1 (single isomer, unassigned) [14 Isomer 1]
4 | 8.82 | 7.38 | Cc1ccc(-c2ccc(NC(=O)C(NCC(C)c3ccc(C#N)cc3)c3ccccc3)nc2)nn1 (single isomer, unassigned) [15 Isomer 4]
5 | 7.40 | 5.80 | COc1cc(NC(=O)C(NCCc2ccc(C#N)cc2)c2ccccc2)ccc1-c1cnn(C)c1 (single isomer, unassigned) [25 Isomer 1]
6 | 7.62 | 5.55 | Cc1cn(-c2ccc(NC(=O)C(NCCc3ccc(C#N)cc3)c3ccccc3)nc2)cn1 (single isomer, unassigned) [28 Isomer 2]
7 | 8.59 | 7.15 | COC1CN(c2ccc(NC(=O)C(NCCc3ccc(C#N)cc3)c3ccccc3)nc2)C1 (single isomer, unassigned) [31 Isomer 1]
8 | 6.78 | < 5.30 | COC1CN(c2ccc(NC(=O)C(NCCc3ccc(C#N)cc3)c3ccccc3)nc2)C1 (single isomer, unassigned) [31 Isomer 2]
9 | 5.14 | < 5.30 | N#Cc1ccc(CCNC(C(=O)Nc2ccc(-c3ccccc3)cn2)c2ccccc2)cc1 (single isomer, unassigned) [34 Isomer 1]
10 | 7.96 | 6.44 | N#Cc1ccc(CCNC(C(=O)Nc2ccc(-c3ccccc3)cn2)c2ccccc2)cc1 (single isomer, unassigned) [34 Isomer 2]
11 | 6.56 | < 5.70 | CN1CCN(c2ccc(NC(=O)C(NCCc3ccc(C#N)cc3)c3ccccc3)nc2)CC1=O (single isomer, unassigned) [44 Isomer 1]
12 | 8.58 | 7.38 | CN1CCN(c2ccc(NC(=O)C(NCCc3ccc(C#N)cc3)c3ccccc3)nc2)CC1=O (single isomer, unassigned) [44 Isomer 2]
13 | 8.84 | 7.59 | CN1CCN(c2ccc(NC(=O)C(NCCc3ccc(Cl)cc3)c3ccccc3)nc2)CC1=O (single isomer, unassigned) [45 Isomer 1]
14 | 7.37 | 5.99 | CN1CCN(c2ccc(NC(=O)C(NCCc3ccc(Cl)cc3)c3ccccc3)nc2)CC1=O (single isomer, unassigned) [45 Isomer 2]
15 | 7.50 | 5.81 | Cc1ccc(CCNC(C(=O)Nc2ccc(-c3cnn(C)c3)cn2)c2ccccc2)cc1 (single isomer, unassigned) [48 Isomer 2]
16 | 8.29 | 6.92 | COC1(C)CCN(c2ccc(NC(=O)C(NCCc3ccc(C#N)cc3)c3ccccc3)nc2)CC1 (single isomer, unassigned) [53 Isomer 1]
17 | < 6.00 | < 5.70 | COC1(C)CCN(c2ccc(NC(=O)C(NCCc3ccc(C#N)cc3)c3ccccc3)nc2)CC1 (single isomer, unassigned) [53 Isomer 2]
18 | 6.92 | 5.62 | Cc1ccn(-c2ccc(NC(=O)C(NCC(C)c3ccc(C#N)cc3)c3ccccc3)nc2)n1 (single isomer, unassigned) [61 Isomer 1]
19 | 6.91 | < 5.30 | Cc1ccn(-c2ccc(NC(=O)C(NCC(C)c3ccc(C#N)cc3)c3ccccc3)nc2)n1 (single isomer, unassigned) [61 Isomer 2]
20 | > 8.70 | 7.50 | Cc1ccn(-c2ccc(NC(=O)C(NCC(C)c3ccc(C#N)cc3)c3ccccc3)nc2)n1 (single isomer, unassigned) [61 Isomer 3]
21 | 7.16 | 5.87 | Cc1ccn(-c2ccc(NC(=O)C(NCC(C)c3ccc(C#N)cc3)c3ccccc3)nc2)n1 (single isomer, unassigned) [61 Isomer 4]
22 | 6.65 | < 5.70 | Cc1cnn(-c2ccc(NC(=O)C(NCC(C)c3ccc(C#N)cc3)c3ccccc3)nc2)c1 (single isomer, unassigned) [62 Isomer 1]
23 | 7.78 | 6.25 | Cc1cnn(-c2ccc(NC(=O)C(NCC(C)c3ccc(C#N)cc3)c3ccccc3)nc2)c1 (single isomer, unassigned) [62 Isomer 2]

Row | pIC50 (full length p300) | pIC50 [1] | Compound
24 | 6.21 | < 5.70 | Cc1cnn(-c2ccc(NC(=O)C(NCC(C)c3ccc(C#N)cc3)c3ccccc3)nc2)c1 (single isomer, unassigned) [62 Isomer 3]
25 | > 8.70 | 7.28 | Cc1cnn(-c2ccc(NC(=O)C(NCC(C)c3ccc(C#N)cc3)c3ccccc3)nc2)c1 (single isomer, unassigned) [62 Isomer 4]
26 | 8.72 | 7.15 | CS(=O)(=O)N1CCN(c2ccc(NC(=O)C(NCCc3ccc(C#N)cc3)c3ccccc3)nc2)CC1 (single isomer, unassigned) [68 Isomer 2]
27 | 8.38 | 7.07 | CC(=O)N1CCN(c2ccc(NC(=O)C(NCCc3ccc(C#N)cc3)c3ccccc3)nc2)CC1 (single isomer, unassigned) [72 Isomer 1]
28 | 7.33 | < 5.70 | CC(=O)N1CCN(c2ccc(NC(=O)C(NCCc3ccc(C#N)cc3)c3ccccc3)nc2)CC1 (single isomer, unassigned) [72 Isomer 2]
29 | 6.67 | < 5.70 | Cn1cc(-c2cnc(NC(=O)C(NCCc3ccc(C#N)cc3)c3ccccc3)cc2F)cn1 (single isomer, unassigned) [74 Isomer 1]
30 | 8.30 | 6.84 | Cn1cc(-c2cnc(NC(=O)C(NCCc3ccc(C#N)cc3)c3ccccc3)cc2F)cn1 (single isomer, unassigned) [74 Isomer 2]
31 | 8.38 | 6.83 | Cn1cc(-c2cnc(NC(=O)C(NCCc3ccc(C#N)cc3)c3ccccc3)c(F)c2)cn1 (single isomer, unassigned) [75 Isomer 1]
32 | 6.41 | < 5.70 | Cn1cc(-c2cnc(NC(=O)C(NCCc3ccc(C#N)cc3)c3ccccc3)c(F)c2)cn1 (single isomer, unassigned) [75 Isomer 2]
33 | 9.12 | 8.19 | CC(CNC(C(=O)Nc1ccc(-c2cnn(C)c2)cn1)c1ccccc1)c1ccc(C#N)c(F)c1 (single isomer, unassigned) [91 Isomer 2]
34 | – | < 5.30 | Cn1cc(-c2ccc3c(c2)CCCN3C(=O)[C@@H](NCCc2ccc(C#N)cc2)c2ccccc2)cn1 (single isomer, unassigned) [151 Isomer 1]
35 | – | < 5.30 | Cn1cc(-c2ccc3c(c2)CCCN3C(=O)[C@@H](NCCc2ccc(C#N)cc2)c2ccccc2)cn1 (single isomer, unassigned) [151 Isomer 2]
36 | – | < 4.22 | NS(=O)(=O)c1ccc(CCN[C@H](C(=O)N2CCc3ccccc32)c2ccccc2)cc1 (single isomer, unassigned) [153 Isomer 1]
37 | – | 5.71 | NS(=O)(=O)c1ccc(CCN[C@H](C(=O)N2CCc3ccccc32)c2ccccc2)cc1 (single isomer, unassigned) [153 Isomer 2]
38 | – | 5.77 | Cc1ncc(-c2ccc(NC(=O)[C@@H](NC[C@@H](C)c3ccc(C#N)cc3)c3ccccc3)nc2)cn1 (single isomer, unassigned; isomer 1) [6 Isomer 1]
39 | – | < 5.70 | Cc1ncc(-c2ccc(NC(=O)[C@@H](NC[C@H](C)c3ccc(C#N)cc3)c3ccccc3)nc2)cn1 (single isomer, unassigned; isomer 2) [6 Isomer 2]
40 | – | < 5.30 | CN1CCN(c2ccc(NC(=O)[C@H](NCCc3ccc(C#N)cc3)c3ccccc3)cc2)CC1 (single isomer, unassigned; isomer 2) [18 Isomer 2]
41 | – | < 5.70 | Cc1ncc(-c2ccc(NC(=O)[C@H](NC[C@@H](C)c3ccc(C#N)cc3)c3ccccc3)nc2)cn1 (single isomer, unassigned; isomer 3) [6 Isomer 3]
42 | – | 7.68 | Cc1ncc(-c2ccc(NC(=O)[C@H](NC[C@H](C)c3ccc(C#N)cc3)c3ccccc3)nc2)cn1 (single isomer, unassigned; isomer 4) [6 Isomer 4]
43 | – | 5.74 | (R, S)- and (S, S)-2-((2- (4- cyanophenyl)propyl)ami- no)-N-(5-(1,3-dimethyl- 1H-pyrazol-4-yl)pyridin- 2-yl)-2-phenylacetamide [113 Isomer 1]
44 | – | 6.03 | (S,R)-, (R,S)-, (S,S)-, (R,R)-(2-((2-(4-cyanophenyl)propyl)amino)-N-(5-(1-(difluoromethyl)-1H-pyrazol-4-yl)pyridin-2-yl)-2-phenylacetamide [20 Isomer 1]
45 | – | 5.79 | (S,R)-, (R,S)-, (S,S)-, (R,R)-(2-((2-(4-cyanophenyl)propyl)amino)-N-(5-(1-(difluoromethyl)-1H-pyrazol-4-yl)pyridin-2-yl)-2-phenylacetamide [20 Isomer 3]
46 | – | < 5.70 | (S,R)-, (R,S)-, (S,S)-, (R,R)-(2-((2-(4-cyanophenyl)propyl)amino)-N-(5-(1-(difluoromethyl)-1H-pyrazol-4-yl)pyridin-2-yl)-2-phenylacetamide [20 Isomer 4]
